Active and inactive are the calls of the source. No cut-off for these calls is given here.
Experiments:
CAKI-1 = assay: Growth inhibition of human Caki1 cells after 48 hrs by sulforhodamine B assay; type: functional; details: CAKI-1, 48 h
MDA-MB-231 = assay: Antitumor activity against human MDA-MB-231 cells xenografted in nu/nu BALB/c mouse assessed as tumor growth inhibition at 15 mg/kg, ip qd for 24 days measured on day 25 relative to control; type: functional; details: MDA-MB-231, ip, route intraperitoneal, read-out: GI
MOLT-4 = assay: Growth inhibition of human MOLT4 cells after 48 hrs by sulforhodamine B assay; type: functional; details: MOLT-4, 48 h
OVCAR-5 = assay: Growth inhibition of human OVCAR5 cells after 48 hrs by sulforhodamine B assay; type: functional; details: OVCAR-5, 48 h
NCI-H460 = assay: Antitumor activity against human H460 cells xenografted in nu/nu BALB/c mouse assessed as tumor growth inhibition at 10 mg/kg, ip qd for 24 days measured on day 25 relative to control; type: functional; details: route intraperitoneal, read-out: GI
Mus musculus [1] = assay: Toxicity in human cancer cells xenografted in nu/nu BALB/c mouse assessed as body weight loss at 5 to 30 mg/kg, ip qd for 24 days; type: organism-based, Cancer cell lines; design: dose 5-30 mg/kg, route intraperitoneal; details: in vivo, 576 h
HOP-92 = assay: Growth inhibition of human HOP92 cells after 48 hrs by sulforhodamine B assay; type: functional; details: HOP-92, 48 h
[2] = Antitumor activity against human ES2 cells xenografted in nu/nu BALB/c mouse assessed as tumor growth inhibition at 30 mg/kg, ip qd for 12 days measured on day 21 relative to control; type: functional; details: ES-2, ip, route intraperitoneal, read-out: GI
ACHN = assay: Growth inhibition of human ACHN cells after 48 hrs by sulforhodamine B assay; type: functional
A549 = assay: Growth inhibition of human A549 cells after 48 hrs by sulforhodamine B assay; type: functional; details: A549, 48 h
A498 = assay: Growth inhibition of human A498 cells after 48 hrs by sulforhodamine B assay; type: functional; details: A498, 48 h
SK-MEL-28 = assay: Growth inhibition of human SK-MEL-28 cells after 48 hrs by sulforhodamine B assay; type: functional; details: SK-MEL-28, 48 h
Mus musculus [3] = assay: Toxicity in mouse 4T1 cells xenografted […] mouse assessed as decrease in body weight at 2.5 to 10 mg/kg, ip qd for 28 days; type: organism-based; design: dose 2.5-10 mg/kg, route intraperitoneal; details: in vivo, 672 h
Mus musculus [4] = assay: Antimetastatic activity against mouse 4T1 cells xenografted in BALB/c mouse assessed as reduction of myeloid derived suppressor cells accumulation in spleen at 5 mg/kg, ip qd for 23 days by flow cytometry analysis relative to control; type: functional; design: scale not given: the % may be the effect or the level left; details: route intraperitoneal
OVCAR-8 = assay: Growth inhibition of human OVCAR8 cells after 48 hrs by sulforhodamine B assay; type: functional; details: OVCAR-8, 48 h
SNB-75 = assay: Growth inhibition of human SNB75 cells after 48 hrs by sulforhodamine B assay; type: functional; details: SNB-75, 48 h
SF-539 = assay: Growth inhibition of human SF539 cells after 48 hrs by sulforhodamine B assay; type: functional; details: SF-539, 48 h
MDA-MB-435 = assay: Growth inhibition of human MDA-MB-435 cells after 48 hrs by sulforhodamine B assay; type: functional; details: MDA-MB-435, 48 h
SNB-19 = assay: Growth inhibition of human SNB19 cells after 48 hrs by sulforhodamine B assay; type: functional; details: SNB-19, 48 h
Malme-3M = assay: Growth inhibition of human MALME-3M cells after 48 hrs by sulforhodamine B assay; type: functional
[5] = Growth inhibition of human […] cells after 48 hrs by sulforhodamine B assay; type: functional
HCT-8 = assay: Cytotoxicity against human HCT8 cells after 72 hrs by MTT assay; type: functional, cell-based
CCRF-CEM = assay: Growth inhibition of human CCRF-CEM cells after 48 hrs by sulforhodamine B assay; type: functional
HeLa = assay: Cytotoxicity against human HeLa cells after 72 hrs by MTT assay; type: functional, cell-based
DU-145 = assay: Growth inhibition of human DU145 cells after 48 hrs by sulforhodamine B assay; type: functional; details: DU-145, 48 h
MDA-MB-468 = assay: Growth inhibition of human MDA-MB-468 cells after 48 hrs by sulforhodamine B assay; type: functional; details: MDA-MB-468, 48 h
Mus musculus [6] = assay: Antimetastatic activity against mouse 4T1 cells xenografted in BALB/c mouse assessed as reduction of myeloid derived suppressor cells accumulation in bone marrow at 5 mg/kg, ip qd for 23 days by flow cytometry analysis relative to control; type: functional; design: scale not given: the % may be the effect or the level left; details: route intraperitoneal
KETR3 = assay: Cytotoxicity against human Ketr3 cells after 72 hrs by MTT assay; type: functional, cell-based
SK-MEL-5 = assay: Growth inhibition of human SK-MEL-5 cells after 48 hrs by sulforhodamine B assay; type: functional; details: SK-MEL-5, 48 h
HL-60(TB) = assay: Growth inhibition of human HL-60(TB) cells after 48 hrs by sulforhodamine B assay; type: functional; details: HL-60, 48 h
SW-620 = assay: Growth inhibition of human SW620 cells after 48 hrs by sulforhodamine B assay; type: functional; details: SW-620, 48 h
RXF 393 = assay: Growth inhibition of human RXF393 cells after 48 hrs by sulforhodamine B assay; type: functional; details: RXF 393, 48 h
TK-10 = assay: Growth inhibition of human TK10 cells after 48 hrs by sulforhodamine B assay; type: functional; details: TK-10, 48 h
OVCAR-3 = assay: Growth inhibition of human OVCAR3 cells after 48 hrs by sulforhodamine B assay; type: functional; details: OVCAR-3, 48 h
NCI-H1975 = assay: Antitumor activity against human NCI-H1975 cells xenografted in nu/nu BALB/c mouse assessed as tumor growth inhibition at 30 mg/kg, ip qd for 12 days measured on day 25 relative to control; type: functional; details: route intraperitoneal, read-out: GI
Mus musculus [7] = assay: Toxicity in ICR mouse assessed as mortality at 112.5 mg/kg, iv; type: organism-based; design: dose 112.5 mg/kg, route intravenous; details: in vivo
Mus musculus [8] = assay: Antimetastatic activity against mouse 4T1 cells xenografted in BALB/c mouse assessed as reduction of TNFalpha mRNA expression in tumor at 5 mg/kg, ip qd for 23 days by RT-PCR analysis; type: functional, organism-based; design: dose 5 mg/kg
OVCAR-4 = assay: Growth inhibition of human OVCAR4 cells after 48 hrs by sulforhodamine B assay; type: functional; details: OVCAR-4, 48 h
NCI-H522 = assay: Growth inhibition of human NCI-H522 cells after 48 hrs by sulforhodamine B assay; type: functional; details: NCI-H522, 48 h
[9] = test system: Lewis lung carcinoma cell line; assay: Antitumor activity against mouse LLC cells xenografted in C57BL/6 mouse assessed as tumor growth inhibition at 10 mg/kg, ip qd for 15 days relative to control; type: functional; details: 360 h, route intraperitoneal, read-out: GI
A-431 = assay: Cytotoxicity against human A431 cells after 72 hrs by MTT assay; type: functional, cell-based
SN12C = assay: Growth inhibition of human SN12C cells after 48 hrs by sulforhodamine B assay; type: functional
SF-268 = assay: Growth inhibition of human SF268 cells after 48 hrs by sulforhodamine B assay; type: functional; details: SF-268, 48 h

SMILES: CC(=O)O[C@H]1C(=O)[C@@]2(C)[C@H]([C@H](OC(=O)c3ccccc3)[C@]3(O)C[C@H](OC(=O)[C@H](OC(=O)CCC(=O)NCCCC[C@H](NC(=O)CC[C@H](NC(=O)[C@H](C)NC(=O)/C=C/c4ccc(Cl)cc4)C(N)=O)C(N)=O)[C@H](NC(=O)c4ccccc4)c4ccccc4)C(C)=C1C3(C)C)[C@]1(OC(C)=O)CO[C@@H]1C[C@@H]2O
- GI50 (CAKI-1): < 10 nM
- inhibition in vivo at 15 mg/kg (MDA-MB-231): 57.4%
- GI50 (MOLT-4): < 10 nM
- GI50 (OVCAR-5): < 10 nM
- inhibition in vivo at 10 mg/kg (NCI-H460): 17.3%
- Activity (Mus musculus [1]): Non-toxic
- GI50 (HOP-92): < 10 nM
- inhibition in vivo at 30 mg/kg [2]: 36.4%
- GI50 (ACHN): < 10 nM
- GI50 (A549): < 10 nM
- GI50 (A498): < 10 nM
- GI50 (SK-MEL-28): < 10 nM
- Activity (Mus musculus [3]): Non-toxic
- Activity (Mus musculus [4]): 22%
- GI50 (OVCAR-8): < 10 nM
- GI50 (SNB-75): < 10 nM
- GI50 (SF-539): < 10 nM
- GI50 (MDA-MB-435): < 10 nM
- GI50 (SNB-19): < 10 nM
- GI50 (Malme-3M): < 10 nM
- GI50 [5]: < 10 nM
- Activity (HCT-8): Active
- GI50 (CCRF-CEM): < 10 nM
- Activity (HeLa): Active
- GI50 (DU-145): < 10 nM
- GI50 (MDA-MB-468): < 10 nM
- Activity (Mus musculus [6]): 45.3%
- Activity (KETR3): Active
- GI50 (SK-MEL-5): < 10 nM
- GI50 (HL-60(TB)): < 10 nM
- GI50 (SW-620): < 10 nM
- GI50 (RXF 393): < 10 nM
- GI50 (TK-10): < 10 nM
- GI50 (OVCAR-3): < 10 nM
- inhibition in vivo at 30 mg/kg (NCI-H1975): 93.1%
- Activity (Mus musculus [7]): Non-toxic
- Activity (Mus musculus [8]): Active
- GI50 (OVCAR-4): < 10 nM
- GI50 (NCI-H522): < 10 nM
- inhibition in vivo at 10 mg/kg [9]: 33.1%
- Activity (A-431): Active
- GI50 (SN12C): < 10 nM
- GI50 (SF-268): < 10 nM
